Reference: publication PMC9551036, “A selective and orally bioavailable VHL-recruiting PROTAC achieves SMARCA2 degradation in vivo” (Nature Communications, 2022)
Values joined by “and” are separate entries in the source; they are usually repeats but may differ in a detail not shown here. Identical values can stand only once. Like-named read-outs stand apart in the source and are kept apart here.

Tests used:
SMARCA4 [1] = biological target: T1, SMARCA4 (Homo sapiens, UniProt P51532); assay: SMARCA4 capillary electrophoresis protein assay in RKO cells; type: cell-based; parameters: endogenous in cells; host or cells: RKO, HCT116, LU99, HCC-364, HCT-15, HCC4006, SK-N-AS; settings: mean ± SD; for Dmax: RKO
Method: 130,000–200,000 cells were seeded in 24-well plates and incubated until settled down or overnight. Compounds were dissolved in DMSO and added to cells in indicated concentrations using a digital dispenser following an optional media change. Cells were incubated for 4 or 18 h as indicated. For SMARCA2/4 half-life determination, 150,000 or 200,000 cells were seeded in 24-well plates. The next day, 50 µg/ml cycloheximide (Sigma) was added and cells were incubated for 1–24 h. For SMARCA2/4 re-synthesis measurements, 200,000 cells were seeded in 24-well plates. The next day, 100 nM compound 6 was added for 4 h to degrade SMARCA2/4, and a sample was taken as baseline for normalisation. To allow re-synthesis, a VHL binder (compound 32, 25 or 50 µM) was then added for 3 or 24 h. Medium was removed, cells were washed with PBS and lysed with 80 µl Lysis Buffer (MSD Tris Lysis Buffer (#R60TX-2) + Halt Inhibitor Cocktail (100x) + Benzonase 0.5 µL/ml). Samples were frozen at −80 °C and thawed at room temperature before use. Samples were transferred to a V-bottom plate and insoluble debris was pelleted by centrifugation for 5 min at maximum speed. The supernatant was transferred to a fresh plate. Master Mix and Ladder were prepared according to manufacturer’s instructions for 12–230 kDa Wes Separation Module, 8 × 25 capillary cartridges, Protein Simple #SM-W004 with Anti-Rabbit Detection Module for Wes, Peggy Sue or Sally Sue, Protein Simple #DM-001. 4.8 µl lysate were mixed with 1.2 µl Master Mix to achieve a protein concentration of ~0.5 µg/µl. Antibodies were diluted in Antibody Diluent II (SMARCA2 Sigma #HPA029981 RRID:AB_10602406 1:25–100, SMARCA4 Cell Signalling #49360 clone D1Q7F RRID:AB_2728743 1:15–120 or Abcam #ab110641 clone EPNCIR111A RRID:AB_10861578 1:60, GAPDH Abcam #ab9485 RRID:AB_307275 1:250). Wes plates were prepared and run according to manufacturer’s instructions. Proteins were quantified with accompanying Compass Software. SMARCA2/4 protein levels were normalised to GAPDH. […] Where applicable, curves were fitted using a 4-parametric logistic model.

[2] = biological target: T2, VCB: PROTAC: SMARCA2^BD ternary complex (Homo sapiens, UniProt P51531); assay: TR-FRET ternary complex affinity and cooperativity, SMARCA2; type: binding
T2 construct: P51531-2, residues 1373-1493 with additional N-terminal SM residues; GST (TEV site) (N); His6 (TEV site) (N, cleaved yes); made in house; host or cells: SMARCA2^BD: Escherichia coli BL21(DE3)

[3] = biological target: T3, (Homo sapiens, UniProt P51532); assay: TR-FRET ternary complex affinity and cooperativity, SMARCA4; type: binding
T3 construct: P51532, residues 1448–1569 with additional N-terminal SM residues; GST (TEV site) (N); His6 (TEV site) (N, cleaved yes); made in house; host or cells: SMARCA4^BD: Escherichia coli BL21(DE3)

[4] = biological target: VCB: PROTAC: SMARCA4^BD ternary complex (Homo sapiens, UniProt P40337+P51532); assay: as above; type: binding; parameters: P51532, residues 1448–1569 with additional N-terminal SM residues; GST (TEV site) (N); His6 (TEV site) (N, cleaved yes); made in house; host or cells: SMARCA4^BD: Escherichia coli BL21(DE3)
SMARCA4 [5] = biological target: T1, SMARCA4; assay: Imaging-based SMARCA4 protein assay in RKO cells; type: cell-based; parameters: endogenous in cells; host or cells: RKO, HCT116, LU99, HCC-364, HCT-15, HCC4006, SK-N-AS; settings: individual replicates
Method: 1250 cells per well in 60 µl medium were plated in flat bottom, poly-lysin coated 384-well plates (CellCarrier Ultra, Perkin Elmer). The next day, test compounds (10 µl of serial dilutions) and DMSO controls were diluted in DMEM medium such that the final DMSO content was <1% or were added using an ultrasound dispensing system. 4 wells were reserved for a background measurement. […] After aspirating the fixing solution, the cells were washed once with 25 µl PBS. 25 µl of blocking buffer (10% goat serum in PBS) was added and cells were incubated for 30 min, then washed once with PBS. Cells were stained with 20 µl of SMARCA2/4 primary antibody solution (Sigma #HPA029981 RRID:AB_10602406 1:1000 or Cell Signalling #52251 clone E9O6 RRID:AB_2799410 1:1000 in PBS with 10% FCS) for 2–4 h at room temperature. Cells were again washed once with PBS. […] The cell layer was then washed once with 25 µl PBS, the wells were filled with 25 µl PBS and the plates were sealed with an adhesive sheet. They were then imaged on the Opera Phoenix (mean intensity in the nucleus). Results were computed as percent of controls ((value of test compound − background)/(value of the negative control DMSO—background) multiplied by 100). EC50 values were computed using a 4-parametric logistic model.

[6] = TR-FRET competition for SMARCA2BD, without VCB, mean ± SD, read-out: TR-FRET SMARCA2BD EC50
[7] = binary, PROTAC alone, individual replicates, read-out: SMARCA2 BD EC50
[8] = TR-FRET competition for SMARCA4BD, without VCB, mean ± SD, read-out: TR-FRET SMARCA4BD EC50
[9] = binary, PROTAC alone, individual replicates, read-out: SMARCA4 BD EC50
[10] = PROTAC + VCB, individual replicates, read-out: Ternary SMARCA4 BD EC50 (PROTAC + VCB)
[11] = TR-FRET competition for SMARCA4BD, + VCB, mean ± SD, read-out: TR-FRET Ternary SMARCA4BD EC50 (PROTAC + VCB)
[12] = 4h, read-out: RKO (4h) SMARCA4 DC50
[13] = 18h, read-out: RKO (18h) SMARCA4 DC50

T1 sequence (P51532 whole entry): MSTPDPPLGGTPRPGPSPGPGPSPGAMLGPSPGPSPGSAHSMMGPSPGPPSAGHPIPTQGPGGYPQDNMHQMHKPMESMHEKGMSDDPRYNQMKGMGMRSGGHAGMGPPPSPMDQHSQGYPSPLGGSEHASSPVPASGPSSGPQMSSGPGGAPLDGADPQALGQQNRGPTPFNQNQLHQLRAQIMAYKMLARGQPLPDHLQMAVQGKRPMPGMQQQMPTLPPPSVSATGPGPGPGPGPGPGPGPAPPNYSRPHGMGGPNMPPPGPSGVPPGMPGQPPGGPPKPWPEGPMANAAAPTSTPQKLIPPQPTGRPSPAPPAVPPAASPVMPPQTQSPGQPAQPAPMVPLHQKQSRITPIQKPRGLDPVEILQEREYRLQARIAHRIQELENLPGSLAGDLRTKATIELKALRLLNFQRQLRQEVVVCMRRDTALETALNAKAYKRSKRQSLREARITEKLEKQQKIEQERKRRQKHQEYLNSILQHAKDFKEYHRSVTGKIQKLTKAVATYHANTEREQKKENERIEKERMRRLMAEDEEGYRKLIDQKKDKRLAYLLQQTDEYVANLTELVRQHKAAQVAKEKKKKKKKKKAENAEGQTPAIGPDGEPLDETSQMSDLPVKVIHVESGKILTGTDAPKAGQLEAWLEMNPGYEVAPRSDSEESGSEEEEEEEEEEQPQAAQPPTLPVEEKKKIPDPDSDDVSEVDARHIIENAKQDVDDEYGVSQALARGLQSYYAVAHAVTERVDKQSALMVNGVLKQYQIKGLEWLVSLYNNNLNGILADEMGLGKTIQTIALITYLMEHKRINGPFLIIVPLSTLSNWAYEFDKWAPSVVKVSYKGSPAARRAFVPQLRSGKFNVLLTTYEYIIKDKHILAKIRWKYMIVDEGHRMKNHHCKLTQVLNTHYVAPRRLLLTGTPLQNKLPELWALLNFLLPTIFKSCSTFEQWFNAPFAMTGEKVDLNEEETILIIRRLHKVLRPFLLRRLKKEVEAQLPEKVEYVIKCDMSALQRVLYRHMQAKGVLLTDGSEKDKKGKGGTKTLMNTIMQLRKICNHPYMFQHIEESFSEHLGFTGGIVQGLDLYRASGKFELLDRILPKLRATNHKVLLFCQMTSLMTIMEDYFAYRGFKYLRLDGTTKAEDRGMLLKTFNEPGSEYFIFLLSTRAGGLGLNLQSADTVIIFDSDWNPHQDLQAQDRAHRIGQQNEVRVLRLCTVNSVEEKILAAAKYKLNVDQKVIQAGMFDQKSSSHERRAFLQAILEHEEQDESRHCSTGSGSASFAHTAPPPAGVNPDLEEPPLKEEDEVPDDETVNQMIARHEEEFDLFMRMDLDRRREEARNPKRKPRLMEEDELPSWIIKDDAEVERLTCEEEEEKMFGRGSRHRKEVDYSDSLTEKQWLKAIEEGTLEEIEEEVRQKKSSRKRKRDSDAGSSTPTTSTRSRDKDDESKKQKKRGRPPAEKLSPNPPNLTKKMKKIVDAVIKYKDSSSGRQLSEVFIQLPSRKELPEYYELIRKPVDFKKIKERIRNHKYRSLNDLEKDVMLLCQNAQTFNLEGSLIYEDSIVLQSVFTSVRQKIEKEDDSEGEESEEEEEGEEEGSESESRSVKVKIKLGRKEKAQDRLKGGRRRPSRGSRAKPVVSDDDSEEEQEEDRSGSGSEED
VCB: PROTAC: SMARCA4^BD ternary complex, sequence (P51532 1448-1569): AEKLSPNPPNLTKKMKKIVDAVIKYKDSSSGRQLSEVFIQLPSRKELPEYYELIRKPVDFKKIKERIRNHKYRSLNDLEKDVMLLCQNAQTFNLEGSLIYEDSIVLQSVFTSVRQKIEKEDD
VCB: PROTAC: SMARCA4^BD ternary complex, sequence (P40337 54-213): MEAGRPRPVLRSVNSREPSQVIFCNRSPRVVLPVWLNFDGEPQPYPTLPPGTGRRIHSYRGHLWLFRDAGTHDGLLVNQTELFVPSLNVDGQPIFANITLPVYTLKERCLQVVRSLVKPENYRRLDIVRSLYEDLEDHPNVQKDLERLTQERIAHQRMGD
VCB: PROTAC: SMARCA4^BD ternary complex, sequence (Q15369 17-112 partner): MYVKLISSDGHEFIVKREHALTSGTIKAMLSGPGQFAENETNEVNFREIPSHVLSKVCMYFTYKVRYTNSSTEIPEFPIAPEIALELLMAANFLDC
VCB: PROTAC: SMARCA4^BD ternary complex, sequence (Q15370 1-104 partner): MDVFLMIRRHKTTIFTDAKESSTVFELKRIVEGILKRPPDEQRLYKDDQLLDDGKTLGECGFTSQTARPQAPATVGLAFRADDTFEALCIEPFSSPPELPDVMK
T3 sequence (P51532 1448-1569): as the sequence (P51532 1448-1569) above
T2 sequence (P51531 with tags, fused parts or gaps isoform P51531-2): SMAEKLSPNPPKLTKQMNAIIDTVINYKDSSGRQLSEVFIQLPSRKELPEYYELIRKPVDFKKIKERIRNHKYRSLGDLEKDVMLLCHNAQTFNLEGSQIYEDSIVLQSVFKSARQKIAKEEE

SMILES	DC50 (SMARCA4 [1]; RKO (4 h)) [nM]	DC50 (SMARCA4 [1]; RKO (18 h)) [nM]	EC50 [2, 6] [nM]	EC50 [2, 7]	EC50 [3, 8] [nM]	EC50 [3, 9]	EC50 [4, 10]	EC50 [4, 11] [nM]	DC50 (SMARCA4 [5]; [12])	DC50 (SMARCA4 [5]; [13])	Dmax (SMARCA4 [1]; RKO (18 h)) [%]	SMARCA4 Dmax (SMARCA4 [1]; RKO (4 h)) [%]	SMARCA4 Dmax (SMARCA4 [1]; RKO (18 h)) [%]	Dmax (SMARCA4 [1]; RKO (4 h)) [%]
Cc1ncsc1-c1ccc(CNC(=O)[C@@H]2C[C@@H](O)CN2C(=O)[C@@H](NC(=O)C2(F)CC2)C(C)(C)C)c(OCCN2CCC(c3ccc4c(c3)n(C3CCCC3)c3nc(=O)c5c(Br)cccc5n43)CC2)c1 [compound 20]	> 25000	> 25000	78 ± 20	95.1 nM and 98.5 nM and 63.7 nM and 90.1 nM and 54.6 nM	120 ± 17	101 nM and 114 nM and 130 nM and 140 nM	312 nM and 310 nM and 294 nM and 321 nM	309 ± 11	> 25000 nM	> 25000 nM				
O=c1nc2n(C3CCCC3)c3ccccc3n2c2cccc(Br)c12 [compound 1]	> 25000	> 25000	425 ± 11	413 nM and 429 nM and 435 nM	857 ± 64	800 nM and 849 nM and 927 nM	824 nM and 894 nM and 817 nM	844 ± 42	> 25000 nM	> 25000 nM				
CN1CCN(c2nc(=O)c3c(Br)cccc3o2)CC1 [compound 15]	> 25000	> 25000		> 10000 nM		> 10000 nM	> 10000 nM		> 25000 nM	> 25000 nM				
Cc1ncsc1-c1ccc([C@H](COC(C)CN2CCC(c3ccc4c(c3)n(C3CCCC3)c3nc(=O)c5c(Br)cccc5n43)CC2)NC(=O)[C@@H]2C[C@@H](O)CN2C(=O)[C@@H](NC(=O)C2(F)CC2)C(C)(C)C)cc1 (some centres unmarked) [compound 9]	> 25000	1780	143 ± 27	132 nM and 149 nM and 140 nM (2×) and 172 nM and 134 nM and 115 nM and 202 nM and 128 nM	265 ± 34	228 nM and 295 nM and 276 nM	88.4 nM and 113 nM and 133 nM and 114 nM and 84.3 nM	105 ± 20	> 25000 nM	912 nM and > 833 nM (2×) and 3.47 µM	88 ± 16			
Cc1ncsc1-c1ccc([C@H](CC[C@@H](C)CCN2CCC(c3ccc4c(c3)n(C3CCCC3)c3nc(=O)c5c(Br)cccc5n43)CC2)NC(=O)[C@@H]2C[C@@H](O)CN2C(=O)[C@@H](NC(=O)C2(F)CC2)C(C)(C)C)cc1 [compound 29]	15 ± 6	11 ± 3	201 ± 45	166 nM and 269 nM and 192 nM and 189 nM	416 ± 177	272 nM and 625 nM and 423 nM	49.3 nM and 72.5 nM and 61.2 nM	60 ± 12	11.1 nM and 13.5 nM and 12.4 nM and 24.9 nM	6.86 nM and 10.4 nM (2×) and 14.2 nM and 15.3 nM and 14 nM		68 ± 6	87 ± 6	
Cc1ncsc1-c1ccc([C@H](CCC(C)(C)CCN2CCC(c3ccc4c(c3)n(C3CCCC3)c3nc(=O)c5c(Br)cccc5n43)CC2)NC(=O)[C@@H]2C[C@@H](O)CN2C(=O)[C@@H](NC(=O)C2(F)CC2)C(C)(C)C)cc1 [compound 30]	> 25000	73 ± 35	260 ± 100	213 nM and 176 nM and > 400 nM and 400 nM and 304 nM		> 2000 nM and 564 nM and > 400 nM	88.3 nM and 118 nM and 113 nM	106 ± 16	> 25000 nM				72 ± 7	
Cc1ncsc1-c1ccc([C@H](CCCCN2CCC(c3ccc4c(c3)n(C3CCCC3)c3nc(=O)c5c(Br)cccc5n43)CC2)NC(=O)[C@@H]2C[C@@H](O)CN2C(=O)[C@@H](NC(=O)C2(F)CC2)C(C)(C)C)cc1 [compound 25]		40 ± 16	87 ± 35	179 nM and 54.5 nM and 63.5 nM and 111 nM and 66.9 nM and 57.7 nM and 73.7 nM and 97.8 nM and 88.9 nM and 103 nM and 118 nM and 101 nM and 123 nM and 55.7 nM	182 ± 57	134 nM and 202 nM and 155 nM and 262 nM	69.7 nM and 82.3 nM and 75.3 nM and 90.7 nM	79 ± 9		31.7 nM and 60 nM and 33.5 nM			52 ± 21	
Cc1ncsc1-c1ccc([C@H](COCCN2CCC(c3ccc4c(c3)n(C3CCCC3)c3nc(=O)c5c(Br)cccc5n43)CC2)NC(=O)[C@@H]2C[C@@H](O)CN2C(=O)[C@@H](NC(=O)C2(N(C)C)CC2)C(C)(C)C)cc1 [compound 26]	81 ± 14	83 ± 21	71 ± 15	87 nM and 79.2 nM and 87.9 nM and 88.7 nM and 86.5 nM and 48.4 nM and 75.1 nM and 59.9 nM and 56.1 nM (2×) and 67.5 nM	149 ± 41	136 nM and 180 nM and 162 nM and 117 nM and 111 nM and 126 nM and 154 nM and 147 nM and 247 nM		56 ± 23	66.9 nM and 93.6 nM and 83.9 nM	61.5 nM and 91.3 nM and 101 nM	82 ± 5			61 ± 15
CN1CCN(c2nc(=O)c3c(Cl)cccc3o2)CC1 [compound 13]	> 25000	> 25000		> 10000 nM		> 10000 nM	> 10000 nM		> 25000 nM	> 25000 nM				
Cc1ncsc1-c1ccc(CNC(=O)[C@@H]2C[C@@H](O)CN2C(=O)[C@@H](NC(=O)C2(F)CC2)C(C)(C)C)c(OCCCCN2CCC(c3ccc4c(c3)n(C3CCCC3)c3nc(=O)c5c(Br)cccc5n43)CC2)c1 [compound 23]	> 25000	1260	98 ± 12	88.5 nM and 111 nM and 107 nM and 87.4 nM	174 ± 21	148 nM and 197 nM and 173 nM and 183 nM	165 nM and 215 nM and 180 nM and 280 nM	206 ± 51					76 ± 30	
